Test results taken from US10766927B2, “Peptides that stimulate subcutaneous adipogenesis” (THE REGENTS OF THE UNIVERSITY OF CALIFORNIA, priority 2012, dated 2020).

Columns and labels:
[1] = test system: Pre-adipocyte stem cells, bone marrow mesenchymal stem cells and fibroblasts; test: Assay 2 to measure adipogenesis (dexamethasone/insulin/indomethacin induction, Oil Red O or BODIPY staining); assay type: cell-based; conditions: for Fold adipogenic induction vs. negative control / Specific activity (activity/1000 daltons): Assay 2; for adipogenic effect compared to KSEVSK 6-mer: assay 2 (FIG. 12)
Procedure: The dexamethasone, insulin, and Oil Red 0 solutions were the same as described above for assay 1. Indomethacin Solution contained 10 mM indomethacin in methanol. The BODIPY 493/503 dye was used at a concentration of 4 μM.
Adipogenesis Maintenance Media was prepared as described above.
Adipogenesis Induction Media: To prepare 501 mL of Adipogenesis Induction Media, 50 μL of the 10 mM stock solution of dexamethasone, 500 μL of the 10 mg/ml stock solution of insulin, 5 ml of a 10 mM stock solution of indomethacin, and 5 mL of a 100× stock solution of penicillin and streptomycin were added to 490 mL of mesenchymal stem cell expansion media.
(§1) Pre-adipocyte stem cells, bone marrow mesenchymal stem cells and fibroblasts such as dermal reticular and papillary fibroblasts were propagated using standard tissue culture methods. Cells were trypsinized to remove cells from the substratum, the trypsin was neutralized, and cells were counted using a hemocytometer. Cells were resuspended at 60,000 cells/ml in low glucose DMEM containing 10% calf serum. 1 mL of cell suspension per well was plated in a 24-well plate, with several wells left empty for blank well staining.
(§2) Cells were incubated overnight and had reached confluency at this point. Approximately 1.8 ml of media was removed from each well and replaced with 2 ml Adipogenesis Induction Media. For negative control wells, expansion medium only was used at this step and for subsequent media changes. For all media changes, media was replaced as gently as possible to avoid disturbing the monolayer.
Cells were incubated for 3 days at 37° C., 5% CO2, media was replaced with fresh Adipogenesis Induction Media, and cells were incubated for an additional three days, at which point adipogenesis could be observed in about 5-10% of cells. Media was removed and replaced with 2 ml of maintenance medium containing either RHAMM antagonist peptides (experimental group) or insulin (concentration as in the induction medium used as positive control). Cells were incubated for 3 days at 37° C., 5% CO2.
Media was removed and BODIPY or Oil Red O staining was performed as described above for assay 1.

[2] = test system: bone marrow mesenchymal stem cells; test: Adipogenesis in culture, assay 1 or 2 not specified; assay type: cell-based; conditions: for adipogenic activity (in words): truncation fragments, FIGS. 7-9, 13; for activity compared to KSEVSK hexamer: FIG. 13, doses 1, 5, 25 μg, absorbance at 520 nm
Text: The following assays were used to assess adipogenic activity of the peptides in the experiments described below in Example 2.
(§3) Pre-adipocyte stem cells including bone marrow mesenchymal stem cells and fibroblasts including reticular and papillary dermal fibroblasts were propagated using standard tissue culture methods. Cells were trypsinized to remove the cells from the substratum. The trypsin was neutralized and cells were counted using a hemocytometer. Cells were resuspended at 30,000 cells/mL in expansion media. […] of cell suspension was plated per well of 24-well plate, with several wells left empty for blank well staining.
as §1

[3] = test system: Pre-adipocyte stem cells including bone marrow mesenchymal stem cells and fibroblasts; test: Assay 1 to measure adipogenesis (IBMX/dexamethasone initiation, Oil Red O or BODIPY staining); assay type: cell-based, rat; conditions: for Fold adipogenic induction vs. negative control / Specific activity (activity/1000 daltons): Assay 1; for adipogenic effect compared to KSEVSK 6-mer: assay 1 (FIG. 11)
Procedure: Reagents: (1) 3-isobutyl-1-methylxanthine (IBMX) solution: 0.5M in DMSO; (2) Insulin solution: 10 mg/mL recombinant human insulin; (3) Dexamethasone solution in 10 mM in ethanol; (4) Oil Red 0 (0.36% in 60% isopropanol) or BODIPY dye (BODIPY 493/503 (4,4-difluoro-1,3,5,7-tetramethyl-4-bora-3a,4a-diaza-s-indacene-8-propionic acid, succinimidyl ester) from Invitrogen at 4-10 μM).
Adipogenesis Initiation Media: mesenchymal stem cell expansion media/0.5 mM IBMX/1 μM dexamethasone. Mesenchymal stem cell expansion media is commercially available from Millipore. The IBMX Solution was diluted 1:1000 and the Dexamethasone Solution was diluted 1:10,000 in expansion media containing antibiotics and antimycotics. The prepared media was stored at 4° C.
Adipogenesis Progression Media for positive control: mesenchymal stem cell expansion media/10 μg/mL insulin. The Insulin Solution was diluted 1:1000 in the expansion media and stored at 4° C.
Experimental Adipogenesis Progression Media: mesenchymal stem cell expansion media/1-100 μg/mL RHAMM antagonist peptides.
Adipogenesis Maintenance Media: mesenchymal stem cell expansion media containing antibiotics and antimycotics.
Negative Control Media: DMEM/10% normal calf serum.
as §3
as §2, with “for 1-2 days until they” for “overnight and had”, “confluency.” for “confluency at this point.”, “mL” for “ml”, “Initiation” for “Induction”, “media” for “medium”
Cells were incubated for 48 hours at 37° C., 5% CO2. 2 mL media was removed from each well, and replaced with 2 mL either positive control or experimental Adipogenesis Progression Media per well. Cells were again incubated for 48 hours at 37° C., 5% CO2. 2 mL of media was removed from each well and replaced with 2 mL Adipogenesis Maintenance Media per well. In addition, media was added to the empty wells reserved for blank well staining Cells were incubated for at least 48 hours at 37° C., 5% CO2. Media was replaced every 48-72 hours. Accumulation of intracellular lipid droplets continued for at least 5 days.
For quantification of Oil Red 0 staining, media was removed and cells were washed twice with PBS, using care to gently add the PBS. 0.5 mL Oil Red 0 solution was added per well of 24-well plate, including to the wells lacking cells, but containing media. Cells were incubated for 15 minutes at room temperature. The staining solution was then removed and wells were washed three times with 1 mL of phosphate buffered saline (PBS). In some experiments, following removal of the last wash, stained plates were scanned or photographed.
Adipogenesis was quantified using a spectrophotometer or fluorometer. 0.25 mL Dye Extraction Solution (isopropyl alcohol) was added per well, and the plate was set on an orbital shaker or platform rocker for 15-30 minutes. Extracted dye was transferred into a cuvette and absorbance was read in a spectrophotometer at visible range for oil red 0 or transferred to a 96-well plate and quantified in a plate reader.
For quantification of BODIPY dye uptake, media was removed and cells were washed twice with PBS, using care to gently add the PBS. Cells were then fixed in 3% paraformaldehyde, washed in PBS then incubated for 1 hour in the dark with the BODIPY solution, prepared in PBS. […]

[4] = test system: Rat skin; test: Rat dermal skin model of adipogenesis (injection into the dermis); assay type: in vivo; conditions: for adipogenic potential, In vivo Rat skin: ranked on a scale of 0-5 with 5 the highest possible score, injected into the dermis of aged rats
Procedure: (§4) Examples of the adipogenic effects of RHAMM antagonists (peptide B (SEQ ID NO: 2), peptide P15-1 (SEQ ID NO. 1), and the antibody to peptide B) are summarized in Table 1. Peptide P15-1, peptide B, and a RHAMM antibody were assayed for their effects on pre-adipocyte stem cells in culture and when injected into the dermis of aged rats. Reagents were ranked on a scale of 0-5 with 5 representing the highest possible score and a completely filled in Harvey ball. “2D” refers to two-dimensional tissue culture.
In FIGS. 5A and 5B, data are shown as a ratio of the area (“surface area”) of fat pads expressed as a ratio of experimental/control values.
The 6-mer (KSEVSK; SEQ ID NO: 3) was tested for adipogenic effect in rat skin in vivo. The results of this testing are shown in the photographs in FIG. 10.

[5] = test system: nude guinea pigs; test: Nude guinea pig model, injection in upper back and ear fat pad, H and E staining; assay type: in vivo; conditions: upper back and ear fat pad after injection; control collagen gel vehicle only
Procedure: Peptide B (SEQ ID NO: 2) was also tested for its effect in nude guinea pigs since their skin structure resembles human facial skin. In particular, the skin of this animal model is more similar to human skin than is rat skin, in that it is hairless and the keratinocyte layer is thicker than in the rat model. […] Thus, peptide B was effective in promoting adipogenesis in this nude guinea pig model.

[6] = test system: human Pre-adipocytes; test: Adipogenic potential in 2D human pre-adipocyte culture; assay type: cell-based; conditions: ranked on a scale of 0-5 with 5 the highest possible score; two-dimensional tissue culture
Procedure: as §4

[7] = test system: Pre-adipocytes (rat mesenchymal stem cells); test: Adipogenic potential in 2D rat pre-adipocyte culture; assay type: cell-based; conditions: ranked on a scale of 0-5 with 5 the highest possible score; two-dimensional tissue culture
Procedure: as §4

[8] = test system: mesenchymal stem cell; test: Adipogenesis using a commercially available mesenchymal stem cell kit; assay type: cell-based

With LKSEVSK [7mer] the “Fold adipogenic induction vs. negative control” value [1] was 3.0, the “Specific activity (activity/1000 daltons)” value (shortened to “Specific activity”) [1] was 3.4 activity/1000 daltons and the “adipogenic activity (in words)” value [2] was “also found to be adipogenic”. For the same molecule, the “Fold adipogenic induction vs. negative control” value [3] was 2 and the “Specific activity” value [3] was 2.3 activity/1000 daltons.

In the case of KSEVSK [6mer], the “Fold adipogenic induction vs. negative control” value [1] is reported as 4.2, the “Specific activity” value [1] is reported as 5.6 activity/1000 daltons and the “adipogenic activity (in words)” value [2] is reported as “also found to be adipogenic”. The “Fold adipogenic induction vs. negative control” value [3] was 2.8, the “Specific activity” value [3] was 3.7 activity/1000 daltons and the “adipogenic effect in rat skin in vivo (fat pads)” value ([4]; FIG. 10) was “able to induce large fat pads, possibly larger than peptide B”.

In the case of KLKDENS, the “adipogenic activity (in words)” value [2] is reported as “Only the SQLKSEVSK (SEQ ID NO: 44) fragment was found to be adipogenic”.

With SEVSK the “activity compared to KSEVSK hexamer” value [2] was “much less active” and the “adipogenic activity (in words)” value [2] was “low level of adipogenic activity”.

For KLKDENSQLKSEVSK [peptide B], the subcutaneous fat deposition [5] was “increase in subcutaneous fat deposition”, the “adipogenic potential, 2D human Pre-adipocytes” value [6] was 5 and the “Fold adipogenic induction vs. negative control” value [1] was 3.1. The “Specific activity” value [1] was 1.7 activity/1000 daltons, the “amount at which maximum adipogenic effect was obtained” value ([2]; bone marrow mesenchymal stem cells, depending upon the screening assay used (FIGS. 3B, 3C, 4)) was 1 to 5 µg and the “fat accumulation in rat dermal skin model” value ([4]; 25-50 μg/injection site) was “induced significant fat accumulation”. For the same molecule, the “fat pad surface area, experimental/control: animal group with best effect” value ([4]; FIGS. 5A and 5B) was “most effective in old females”, the “adipogenic potential, In vivo Rat skin” value [4] was 5 and the “adipogenic potential, 2D rat Pre-adipocytes (rat mesenchymal stem cells)” value [7] was 5.

For SQLKSEVSK [9mer], the “Fold adipogenic induction vs. negative control” value [1] was 3.0, the “Specific activity” value [1] was 2.6 activity/1000 daltons and the “adipogenic activity (in words)” value [2] was “found to be adipogenic”. The “Fold adipogenic induction vs. negative control” value [3] was 2.4 and the “Specific activity” value [3] was 2.1 activity/1000 daltons.

STMMSRSHKTRSHHV [peptide P15-1] was tested, and the “adipogenic potential, 2D human Pre-adipocytes” value [6] was 2, the “adipogenic potential, In vivo Rat skin” value [4] was 2 and the “adipogenic potential, 2D rat Pre-adipocytes (rat mesenchymal stem cells)” value [7] was 2.

In the case of STMMSRSHK, the “adipogenic activity (in words)” value [2] is reported as “has adipogenic activity”.

ASEVSK was tested, and the “adipogenic effect compared to KSEVSK 6-mer” value [1] was “reduced adipogenic effects” and the “adipogenic effect compared to KSEVSK 6-mer” value [3] was “reduced adipogenic effects”.

In the case of KSEVS, the “activity compared to KSEVSK hexamer” value [2] is reported as “much less active” and the “adipogenic activity (in words)” value [2] is reported as “low level of adipogenic activity”.

In the case of KSEVSA, the “adipogenic effect compared to KSEVSK 6-mer” value [1] is reported as “reduced adipogenic effects” and the “adipogenic effect compared to KSEVSK 6-mer” value [3] is reported as “reduced adipogenic effects”.

B1: RHAMM carboxy-terminal sequence: RHAMM carboxy-terminal sequence aa681-794 produced as a recombinant protein (protein)
chain: LDAFEAEKQALLNEHGATQEQLNKIRDSYAQLLGHQNLKQKIKHVVKLKDENSQLKSEVSKLRSQLVKRKQNELRLQGELDKALGIRHFDPSKAFCHASKENFTPLKEGNPNCC
B1 was tested, and the promotion of adipogenesis [8] was “promoted adipogenesis”.
